Measured values published in patent publication US20020160459A1, “PROCESS FOR PRODUCTION OF N-GLUCOSAMINE” (priority 1999, published 2002).
Where two headings read alike, the source gives them in different places.

Legend:
[1] = target: T1, N-glucosamine-6-phosphate synthase (Escherichia coli, UniProt P17169); conditions: White 1968, Biochem. J. 106:847-858; cited from earlier work
[2] = target: T1, N-glucosamine-6-phosphate synthase; assay: Product inhibition of N-glucosamine-6-phosphate synthase, spectrophotometric assay in crude cell extracts; format: biochemical; conditions: FIG. 5; assays run with various concentrations of added product
Protocol: N-glucosamine-6-phosphate synthase activity was measured in production strains containing integrated T7-glmS cassettes after growth in LB medium with and without IPTG (Table 2). N-glucosamine-6-phosphate synthase was assayed in crude cell extracts using either […] or spectrophotometric assays (Badet et al., 1987, Biochemistry 26:1940-1948) as described below. The extracts used for those assays were prepared by suspending washed cell pellets in 5 mL of 0.1 M KH2PO4/K2HPO4, pH 7.5 per gram of wet cell paste, passing the suspension through a French press at 16,000 psi, and centrifuging the disrupted cell suspension at 35,000-40,000 ×g for 15 to 20 minutes. The supernatant was used as the source of enzyme for the assay.
In the spectrophotometric assay, 1 mL reactions containing 50 mM KH2PO4/K2HPO4, 10 mM fructose-6-phosphate, 6 mM L-glutamine, 10 mM KCl, 0.6 mM acetylpyridine adenine dinucleotide (APAD), and 50-60 Units of L-glutamic dehydrogenase (Sigma Type II from bovine liver) were run at room temperature. The activity was followed by monitoring the absorbance at 365 nm after the addition of extract and corrected for the small absorbance increase observed in the absence of extract. The activity was calculated using a molar extinction coefficient for APAD of 9100. […]

[3] = target: T1, N-glucosamine-6-phosphate synthase; conditions: substrate of the enzyme from Escherichia coli; cited from earlier work

T1 sequence (P17169 2-609): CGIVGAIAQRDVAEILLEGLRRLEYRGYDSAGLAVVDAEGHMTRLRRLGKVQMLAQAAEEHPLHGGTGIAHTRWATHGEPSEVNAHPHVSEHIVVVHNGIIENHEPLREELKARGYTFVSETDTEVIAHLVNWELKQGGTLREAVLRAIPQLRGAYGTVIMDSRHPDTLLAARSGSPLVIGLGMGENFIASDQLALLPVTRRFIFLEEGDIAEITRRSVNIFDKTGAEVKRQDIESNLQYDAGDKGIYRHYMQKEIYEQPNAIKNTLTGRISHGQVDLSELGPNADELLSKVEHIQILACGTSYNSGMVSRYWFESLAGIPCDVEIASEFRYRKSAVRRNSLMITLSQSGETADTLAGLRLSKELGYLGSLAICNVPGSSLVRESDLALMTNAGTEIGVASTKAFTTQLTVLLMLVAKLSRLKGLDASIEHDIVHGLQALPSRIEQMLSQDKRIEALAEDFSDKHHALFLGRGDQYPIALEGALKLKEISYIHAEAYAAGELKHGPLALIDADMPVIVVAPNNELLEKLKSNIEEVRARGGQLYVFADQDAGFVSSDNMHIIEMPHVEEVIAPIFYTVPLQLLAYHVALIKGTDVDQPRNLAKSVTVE

Structure (SMILES) | inhibition of N-glucosamine-6-phosphate synthase [1] | inhibition of N-glucosamine-6-phosphate synthase [2] | Km [3] [µM]
N[C@@H]1[C@@H](O)[C@H](O)[C@@H](COP(=O)(O)O)O[C@@H]1O [N-glucosamine-6-phosphate] | inhibited | significantly inhibited | 
N[C@H]1C(O)O[C@H](CO)[C@@H](O)[C@@H]1O (some centres unmarked) [N-glucosamine] |  | slightly inhibited | 
O=C(CO)[C@@H](O)[C@H](O)[C@H](O)COP(=O)(O)O [fructose-6-phosphate] |  |  | 2000
NC(=O)CC[C@H](N)C(=O)O [glutamine] |  |  | 400
